In patent US20130236568A1, “PHOSPHAPLATINS HAVING ANTI-ANGIOGENIC, ANTI-METASTATIC, AND PRO-APOPTOTIC PROPERTIES AND USES THEREOF” (Ohio University, priority 2011, published 2013):

What was measured:
[1] = test system: yeast deletion collection; test: Genome-wide fitness assay in yeast (pooled deletion strains); format: cell-based; conditions: for Sensitivity of DNA damage/repair genes (NER, HRR, PRR): phosphaplatins at 200 μM final concentration
From the text: The around 6000 strains in the yeast deletion collection can be studied in a single culture by using a microarray to detect the 20 bp DNA “barcodes” or “tags” contained in each strain. Barcode intensities are compared across time-points or across conditions to analyze the relative fitness of each strain. This development of the pooled fitness assay has greatly facilitated the functional annotation of the yeast genome by making genome-wide gene-deletion studies faster and easier, and has led to the development of high throughput methods for studying drug action in yeast. Pooled screens can be used for identifying gene functions, measuring the functional relatedness of gene pairs in order to group genes into pathways, identifying drug targets, and determining a drug's mechanism of action. This process involves five main steps: preparing aliquots of pooled cells, pooled growth, isolation of genomic DNA and PCR amplification of the barcodes, array hybridization (or next generation sequencing), and data analysis.
The pooled fitness assay involves five main steps (FIG. 3). First, the deletion collection is grown on solid media in arrayed format and the resulting cells are pooled and frozen to make cell aliquots that will be used for starting growth experiments. Cells are then grown in the desired conditions, typically for 5 to 20 generations. The barcodes from the resulting cell samples are prepared for hybridization by isolation of the genomic DNA and PCR amplification of the barcodes. The barcodes are amplified in two reactions to prevent crosstalk between the uptag and downtag primers. The resulting PCR products are then hybridized to tag arrays with one array needed per cell sample. Data is then analyzed to determine differences in strain representation between pairs of samples.
To analyze the genome wide effects of pyrodach-2 and -4, we screened 2 collections of strains, 1200 essential genes as heterozygote deletion mutants (reducing functional gene dose from 2 to 1) and 4800 non-essential genes as complete deletions (reducing functional gene dose from 2 to 0). Both compounds were screened at the highest dose possible (200 μM final concentration) to increase the likelihood of finding compound-specific sensitive strains.
Fitness profiling of pooled deletion strains involves […] main steps: • 1. Strains are first pooled at approximately equal abundance. • 2. The pool is grown competitively in the condition of choice and a control condition. If a gene is sensitive to the treatment condition, the strain carrying this deletion will grow more slowly and become under-represented relative to the control culture (purple strain). Resistant strains will grow faster and become over-represented (not shown). • 3. Genomic DNA is isolated from cells harvested at the end of pooled growth, and barcodes are amplified from the genomic DNA with universal primers. • 4. PCR products are then hybridized to an array that detects the tag sequences, giving tag intensities for the two samples. • 5. The treatment and control sample are then compared to determine the relative fitness of each strain. Note that only the purple strain is described as sensitive to the condition. While the red strain grows more slowly than the blue strain in the treatment, this growth difference in not of interest because it matches that seen in the control.

[2] = test system: A2780/C30 cells; test: Cell death detection assay with ELISA, A2780/C30 cells; format: cell-based, human; conditions: 7 μM cisplatin or 180 μM D4
Protocol: In these experiments, ovarian cancer cells were treated with pyrodach-4 in the presence and absence of inhibitors PFT-α (an inhibitor p53) and LY29400 (an inhibitor of PI3K).
The different treatment groups from left to right are: control, 7 μM cisplatin, Con+PFT-α, 180 μM D4, 180 μM D4+PFT-α, 180 μM D4+LY294002. Apoptosis was quantified using the Cell Death Detection ELISA from Roche.
A2780 and A2780/C30 cells were grown in monolayers, trypsinized and suspended in supplemented RPMI 1640 media as described in Example 5. All the treatments on the Fc/A2780 and Fc/A2780/C30 cell samples were carried out in triplicate. The ELISA was performed according to the manufacturer's instructions. Briefly, 50,000 cells were plated for each treatment and the cells were allowed to adhere for 4-6 hours. Cells were then either incubated with media alone (untreated sample) or with pyrodach-4 or cisplatin in the concentrations indicated above. DNA of the treated and untreated cells was assayed for nucleosomal DNA using the ELISA kit (purchased from Roche Diagnostics, Mannheim, Germany). The cells were lysed for 30 minutes using the lysis buffer. After centrifuging, 10% (v/v) supernanant was incubated with anti-histone-biotin and anti-DNA-peroxidase. After two hour incubation, the pellets were washed three times and incubated with the substrate solution. The absorbances were measured at 405 and 490 nm for each treatment type using SPECTRA Max M2 multichannel fluorescence plate reader (Molecular Devices, Sunnyvale, Calif.). The absorbances of the treated samples were normalized to the substrate solution.

[3] = test system: VEGFR2 gene; test: Quantitative real-time PCR, VEGFR2 gene expression in A2780 cells; format: cell-based, human; conditions: A2780 (cisplatin-sensitive); positive = manifold increase, negative = relative decrease vs untreated cells; cisplatin 7 μM, pyrodach-4 180 μM
Protocol: (§1) Evaluations of selected gene expressions in Human Umbilical Vein Endothelial Cells (HUVEC) and Human Ovarian Cancer Cells by quantitative reverse transcriptase polymerase chain reaction (PCR)
(§2) Quantitative real-time PCR experiments were performed to estimate the expression of a selection of targeted genes. HUVEC cells (Lonza Walkersville, Frederick, Md.) were cultured on 0.1% gelatin-coated petri dishes by following standard protocols recommended by the vendor in a humidified incubator by maintaining 5% CO2 at 37° C. Human epithelial ovarian cancer cells (A2780) and cisplatin-resistant cells (A2780/C30) were cultured in RPMI 1640 with or without cisplatin (7 μM) and pyrodach-4 (180 μM) for 0, 3, 12 and 24 hours. […] HUVECs were treated with or without cisplatin (7 μM) or pyrodach-4 (90 or 180 μM) for various durations ranging from 1 hr. to 6 hrs.
(§3) Both treated and untreated cancer cells were maintained in RPMI 1640 medium with 10% fetal bovine serum, 2 μmol L-glutamine, 100 units/mL penicillin-streptomycin and 0.25 units/mL insulin solution, at 37° C. with 5% CO2. RNA was isolated from both the treated and untreated cells. […] The quantity and purity of RNA were determined by UV spectroscopy (NanoDrop 2000 Thermo Scientific, Wilmington, Del.). A minimum absorbance ratio index (ratio of the absorbance measured at 260 nm over that at 280 nm) of 1.9 was used as an acceptable purity. […] The target gene was labeled with a blue dye (FAM, absorbance: 494 nm, emission: 518 nm) while the reference gene was tagged with a green dye (VIC, absorbance: 538 nm, emission: 554 nm). The cDNA concentrations were selected such that the threshold cycle (Ct) values for the target genes were between 17 and 32, most sensitive for the fluorescence detection by ABI StepOnePlus™ instrument used for the measurements.
(§4) The threshold cycle number (Ct), the point at which the fluorescence of the qPCR reaction just exceeds the threshold fluorescence of the detection system, was determined. […]

[4] = test system: VEGFR2 gene; test: Quantitative real-time PCR, VEGFR2 gene expression in A2780/C30 cells; format: cell-based, human; conditions: A2780/C30 (cisplatin-resistant); positive = manifold increase, negative = relative decrease vs untreated cells; cisplatin 7 μM, pyrodach-4 180 μM
Protocol: as §1, §2, §3, §4

[5] = yeast deletion strains, 200 μM final concentration

NC1CCCCC1N.O=P([O-])(O)OP(=O)([O-])O.[Pt+2] (racemic) [pyrodach-2, trans-(±)-1,2-cyclohexanediamine(pyrophosphato) platinum(II)]
Tolerability by the yeast cell (few sensitive strains) ([1]; highest dose possible, 200 μM final concentration): well tolerated by the cell
Compound-specific sensitive strain [1, 5]: induced sensitivity in the strain avo2
Functions enriched among sensitive strains [1, 5]: 1) iron and copper transport and 2) metal-regulated transcription factors
Sensitivity of DNA damage/repair genes (NER, HRR, PRR) ([1]; yeast deletion strains): not a single gene involved in DNA repair or other DNA metabolic processes showed any sensitivity as a mutant

N.N.[Cl][Pt][Cl] [Cisplatin, cisplatin, reference compound]
Sensitivity of DNA damage/repair genes (NER, HRR, PRR) ([1]; yeast deletion strains): induced expression of those genes related to the DNA response
Apoptotic cell death (ELISA absorbance) [2]: insignificant increase in absorbance
Normalized expression of VEGFR2 gene [3]: 2.5
Normalized expression of VEGFR2 gene [4]: 2.0
